# Reference: PubChem BioAssay AID248 (DTP/NCI, 2004)
# Several values for one entry are separate records, joined by “and”; a condition that tells them apart may be missing. Equal entries are not always repeated. Toxic doses and inconclusive results are not listed. Square brackets hold non-standard residues; d marks the D form. Peptide text beside a SMILES is read from it. * marks the point of attachment. Cbz = O=C(OCc1ccccc1)*; OBn = c1ccc(CO*)cc1; Sar = CNCC(=O)O
# Test system: L1210 leukemia ip in BDF1 mice, survival T/C
# Assay: NCI In Vivo Anticancer Drug Screen. Data for tumor model L1210 Leukemia (intraperitoneal) in B6D2F1 (BDF1) mice
# Conditions: higher = longer survival
# Method in brief: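 Transplantable tumor model; survival measured in treated vs vehicle control mice. Value = treated/control.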
# [1] = endpoint: mean survival time, dose: 100.0 mg/kg/injection, schedule: Q04DX003 (ip), vehicle: saline with Tween-80
# [2] = endpoint: mean survival time, dose: 200.0 mg/kg/injection, schedule: Q04DX003 (ip), vehicle: saline with Tween-80
# [3] = endpoint: mean survival time, dose: 400.0 mg/kg/injection, schedule: Q04DX003 (ip), vehicle: saline with Tween-80
# [4] = endpoint: mean survival time, dose: 100.0 mg/kg/injection, schedule: Q01DX009 (ip), vehicle: saline with Tween-80
# [5] = endpoint: mean survival time, dose: 200.0 mg/kg/injection, schedule: Q01DX009 (ip), vehicle: saline with Tween-80
# [6] = endpoint: mean survival time, dose: 400.0 mg/kg/injection, schedule: Q01DX009 (ip), vehicle: saline with Tween-80
# [7] = endpoint: mean survival time, dose: 100.0 mg/kg/injection, schedule: Q01DX001 (ip), vehicle: carboxymethylcellulose (CMC)
# [8] = endpoint: mean survival time, dose: 200.0 mg/kg/injection, schedule: Q01DX001 (ip), vehicle: carboxymethylcellulose (CMC)
# [9] = endpoint: mean survival time, dose: 400.0 mg/kg/injection, schedule: Q01DX001 (ip), vehicle: carboxymethylcellulose (CMC)
# [10] = endpoint: mean survival time, dose: 100.0 mg/kg/injection, schedule: Q04DX003 (ip), vehicle: Klucel (hydroxypropylcellulose) (HPC)
# [11] = endpoint: mean survival time, dose: 25.0 mg/kg/injection, schedule: Q01DX001 (ip), vehicle: Klucel (hydroxypropylcellulose) (HPC)
# [12] = endpoint: mean survival time, dose: 50.0 mg/kg/injection, schedule: Q01DX001 (ip), vehicle: Klucel (hydroxypropylcellulose) (HPC)
# [13] = endpoint: mean survival time, dose: 200.0 mg/kg/injection, schedule: Q04DX003 (ip), vehicle: Klucel (hydroxypropylcellulose) (HPC)
# [14] = endpoint: mean survival time, dose: 400.0 mg/kg/injection, schedule: Q04DX003 (ip), vehicle: Klucel (hydroxypropylcellulose) (HPC)
structure (smiles),measurement,setting,value
CCN=C(c1ccc(NC(=O)c2ccc(C(=O)Nc3ccc(C(=NCC)N(CC)C(=O)Nc4ccc(OCC)cc4)cc3)cc2)cc1)N(CC)C(=O)Nc1ccc(OCC)cc1,T/C,"endpoint: mean survival time, dose: 3.75 mg/kg/injection, schedule: Q01DX015 (ip), vehicle: methylcellulose (MC)",122 % of control
same,T/C,"endpoint: mean survival time, dose: 7.5 mg/kg/injection, schedule: Q01DX015 (ip), vehicle: methylcellulose (MC)",150 % of control
Clc1ccc(Sc2ncnc3nc[nH]c23)cc1,T/C,[1],102 % of control
same,T/C,[2],100 % of control
same,T/C,[3],105 % of control
Cc1ccc(C(=O)NCCCOc2ccc([N+](=O)[O-])cc2Cl)cc1S(=O)(=O)F,T/C,[4],106 % of control
same,T/C,[1],86 % of control
same,T/C,[5],96 % of control
same,T/C,[2],97 % of control
same,T/C,[6],98 % of control
same,T/C,[3],103 % of control
CC1(C)N=C(N)N=C(N)N1c1cccc(/C=C/C=C/c2cccc([N+](=O)[O-])c2)c1,T/C,"endpoint: mean survival time, dose: 100.0 mg/kg/injection, schedule: Q01DX001 (ip), vehicle: saline",100 % of control
N=NC(=O)c1ccccc1Nc1c(O)[nH]c2ccccc12,T/C,[7],89 % of control
same,T/C,[8],93 % of control
same,T/C,[9],93 % of control
CNCCC(CNC1=NCCN1)(c1cccc2ccccc12)C(C)C (stereo unspecified),T/C,[10],94 % of control
CC1(C)Cc2cccc(OC(=O)NO)c2O1,T/C,"endpoint: mean survival time, dose: 12.5 mg/kg/injection, schedule: Q01DX001 (ip), vehicle: Klucel (hydroxypropylcellulose) (HPC)",100 % of control
same,T/C,[11],96 % of control
same,T/C,[12],96 % of control
CN(CC(=O)OCc1ccccc1)C(=O)CNC(=O)CNC(=O)OCc1ccccc1 (Cbz-Gly-Gly-[Sar]-OBn),T/C,[1],92 % of control
same,T/C,[2],90 % of control
same,T/C,[3],95 % of control
Cc1cc(O)n(Cc2ccccc2)c(=O)c1,T/C,"endpoint: mean survival time, dose: 25.0 mg/kg/injection, schedule: Q01DX009 (ip), vehicle: saline with Tween-80",96 % of control
same,T/C,"endpoint: mean survival time, dose: 50.0 mg/kg/injection, schedule: Q01DX009 (ip), vehicle: saline with Tween-80",93 % of control
same,T/C,[4],93 % of control
same,T/C,[1],109 % of control
same,T/C,[5],94 % of control
same,T/C,[2],98 % of control
same,T/C,[3],90 % of control
CC(C)=CCCC(=O)NC(=O)NS(=O)(=O)c1ccc(Cl)cc1,T/C,"endpoint: mean survival time, dose: 50.0 mg/kg/injection, schedule: Q01DX009 (ip), vehicle: Klucel (hydroxypropylcellulose) (HPC)",109 % of control
same,T/C,"endpoint: mean survival time, dose: 100.0 mg/kg/injection, schedule: Q01DX009 (ip), vehicle: Klucel (hydroxypropylcellulose) (HPC)",100 % of control
same,T/C,"endpoint: mean survival time, dose: 200.0 mg/kg/injection, schedule: Q01DX009 (ip), vehicle: Klucel (hydroxypropylcellulose) (HPC)",96 % of control
NS(=O)(=O)c1ccc(N=Cc2ccccc2)cc1,T/C,[4],89 % of control
same,T/C,[5],92 % of control
same,T/C,[6],94 % of control
CC(C)CN(C)/N=N/c1nc[nH]c1C(N)=O,T/C,"endpoint: mean survival time, dose: 33.0 mg/kg/injection, schedule: Q01DX009 (ip), vehicle: carboxymethylcellulose (CMC)",114 % of control
same,T/C,"endpoint: mean survival time, dose: 37.0 mg/kg/injection, schedule: Q01DX Z (ip), vehicle: carboxymethylcellulose (CMC)",170 % of control
same,T/C,"endpoint: mean survival time, dose: 50.0 mg/kg/injection, schedule: Q01DX Z (ip), vehicle: carboxymethylcellulose (CMC)",156 % of control
same,T/C,"endpoint: mean survival time, dose: 75.0 mg/kg/injection, schedule: Q01DX Z (ip), vehicle: carboxymethylcellulose (CMC)",167 % of control
same,T/C,"endpoint: mean survival time, dose: 80.0 mg/kg/injection, schedule: Q01DX015 (ip), vehicle: carboxymethylcellulose (CMC)",109 % of control
same,T/C,[7],116 % of control
same,T/C,"endpoint: mean survival time, dose: 120.0 mg/kg/injection, schedule: Q01DX009 (ip), vehicle: carboxymethylcellulose (CMC)",86 % of control
same,T/C,"endpoint: mean survival time, dose: 134.0 mg/kg/injection, schedule: Q01DX001 (ip), vehicle: carboxymethylcellulose (CMC)",106 % of control
same,T/C,"endpoint: mean survival time, dose: 134.0 mg/kg/injection, schedule: Q01DX015 (ip), vehicle: carboxymethylcellulose (CMC)",109 % of control
same,T/C,"endpoint: mean survival time, dose: 178.0 mg/kg/injection, schedule: Q01DX001 (ip), vehicle: carboxymethylcellulose (CMC)",106 % of control
same,T/C,[8],122 % of control
same,T/C,"endpoint: mean survival time, dose: 267.0 mg/kg/injection, schedule: Q01DX001 (ip), vehicle: carboxymethylcellulose (CMC)",110 % of control
same,T/C,[9],151 % of control
same,T/C,"endpoint: median survival time, dose: 12.5 mg/kg/injection, schedule: Q01DX009 (ip), vehicle: steriod suspending solution",122 % of control
same,T/C,"endpoint: median survival time, dose: 25.0 mg/kg/injection, schedule: Q01DX009 (ip), vehicle: steriod suspending solution",111 % of control
same,T/C,"endpoint: median survival time, dose: 50.0 mg/kg/injection, schedule: Q01DX011 (ip), vehicle: steriod suspending solution",175 % of control
same,T/C,"endpoint: median survival time, dose: 100.0 mg/kg/injection, schedule: Q01DX009 (ip), vehicle: steriod suspending solution",155 % of control
same,T/C,"endpoint: median survival time, dose: 100.0 mg/kg/injection, schedule: Q01DX011 (ip), vehicle: steriod suspending solution",168 % of control
CC(=O)c1ccccc1OS(=O)(=O)c1ccc([N+](=O)[O-])cc1,T/C,[4],105 % of control
same,T/C,[10],105 % of control
same,T/C,[5],111 % of control
same,T/C,[13],100 % of control
same,T/C,[6],114 % of control
same,T/C,[14],103 % of control
CCOc1cccc(OCC)c1C,T/C,[10],97 % of control
same,T/C,[13],94 % of control
same,T/C,[14],101 % of control
O=C(CN1CCOCC1)Nc1ccc(S(=O)(=O)c2ccc(Cl)cc2)cc1,T/C,[1],101 % of control
same,T/C,[2],101 % of control
same,T/C,[3],95 % of control
Cc1ccc(-n2ccnc2)c(N=Cc2ccc(N(CCCl)CCCl)cc2C)c1,T/C,"endpoint: mean survival time, dose: 100.0 mg/kg/injection, schedule: Q04DX002 (ip), vehicle: Klucel (hydroxypropylcellulose) (HPC)",98 % of control
same,T/C,"endpoint: mean survival time, dose: 200.0 mg/kg/injection, schedule: Q04DX002 (ip), vehicle: Klucel (hydroxypropylcellulose) (HPC)",102 % of control
same,T/C,"endpoint: mean survival time, dose: 400.0 mg/kg/injection, schedule: Q04DX002 (ip), vehicle: Klucel (hydroxypropylcellulose) (HPC)",124 % of control
CCN(CC)C(C)C(O)c1ccc2cc(Br)c3ccccc3c2c1 (stereo unspecified),T/C,"endpoint: mean survival time, dose: 55.0 mg/kg/injection, schedule: Q01DX Z (ip), vehicle: methylcellulose (MC)",95 % of control
same,T/C,"endpoint: mean survival time, dose: 83.0 mg/kg/injection, schedule: Q01DX Z (ip), vehicle: methylcellulose (MC)",97 % of control
same,T/C,"endpoint: mean survival time, dose: 125.0 mg/kg/injection, schedule: Q01DX Z (ip), vehicle: methylcellulose (MC)",92 % of control
COc1cc(C)cccc1=O,T/C,"endpoint: mean survival time, dose: 50.0 mg/kg/injection, schedule: Q01DX001 (ip), vehicle: carboxymethylcellulose (CMC)",107 % of control
same,T/C,[7],107 % of control
same,T/C,[8],96 % of control
same,T/C,[9],98 % of control
COc1ccc2nc3cc(Cl)ccc3c(Nc3ccc(O)c(CN4CCN(C)CC4)c3)c2c1,T/C,"endpoint: mean survival time, dose: 75.0 mg/kg/injection, schedule: Q01DX001 (ip), vehicle: other",96 % of control
same,T/C,"endpoint: mean survival time, dose: 75.0 mg/kg/injection, schedule: Q04DX003 (ip), vehicle: other",94 % of control
same,T/C,"endpoint: mean survival time, dose: 150.0 mg/kg/injection, schedule: Q01DX001 (ip), vehicle: other",100 % of control
same,T/C,"endpoint: mean survival time, dose: 150.0 mg/kg/injection, schedule: Q04DX003 (ip), vehicle: other",97 % of control
same,T/C,"endpoint: mean survival time, dose: 300.0 mg/kg/injection, schedule: Q01DX001 (ip), vehicle: other",97 % of control
CNC1C(c2ccc(C)cc2)=NN(c2ccccc2)C1c1ccccc1 (stereo unspecified),T/C,"endpoint: mean survival time, dose: 100.0 mg/kg/injection, schedule: Q01DX001 (ip), vehicle: saline sonified",95 % of control
same,T/C,"endpoint: mean survival time, dose: 200.0 mg/kg/injection, schedule: Q01DX001 (ip), vehicle: saline sonified",95 % of control
same,T/C,"endpoint: mean survival time, dose: 400.0 mg/kg/injection, schedule: Q01DX001 (ip), vehicle: saline sonified",89 % of control
CSc1ccc2c(c1)-c1ccccc1C2=O,T/C,"endpoint: mean survival time, dose: 100.0 mg/kg/injection, schedule: Q04DX003 (ip), vehicle: acetone",94 % of control
same,T/C,"endpoint: mean survival time, dose: 200.0 mg/kg/injection, schedule: Q04DX003 (ip), vehicle: acetone",89 % of control
same,T/C,"endpoint: mean survival time, dose: 400.0 mg/kg/injection, schedule: Q04DX003 (ip), vehicle: acetone",93 % of control
CC(C)(C)C1CCC(NC2=NCCO2)CC1 (stereo unspecified),T/C,[11],103 % of control
same,T/C,[12],104 % of control
same,T/C,"endpoint: mean survival time, dose: 50.0 mg/kg/injection, schedule: Q04DX003 (ip), vehicle: Klucel (hydroxypropylcellulose) (HPC)",96 % of control
same,T/C,"endpoint: mean survival time, dose: 100.0 mg/kg/injection, schedule: Q01DX001 (ip), vehicle: Klucel (hydroxypropylcellulose) (HPC)",93 % of control and 100 % of control
same,T/C,[10],102 % of control
